pKi: −log10 of the molar value. Values after ≈ are worked out from the molar mass of the structure shown. Where two headings read alike, the source gives them in different places.
Tests used:
[1] = test system: Streptococcus pneumoniae; assay: Susceptibility testing in liquid media (MIC), S. pneumoniae; type: cell-based; settings: 35° C. overnight, read-out: S. pneumoniae MIC range
Method: (§1) Compounds of this invention were also tested for antimicrobial activity by susceptibility testing in liquid media. Such assays were performed within the guidelines of the latest NCCLS document governing such practices: “M7-A5 Methods for dilution Antimicrobial Susceptibility Tests for Bacteria that Grow Aerobically; Approved Standard—Fifth Edition (2000)”. Other publications such as “Antibiotics in Laboratory Medicine” (Edited by V. Lorian, Publishers Williams and Wilkins, 1996) provide essential practical techniques in laboratory antibiotic testing. Essentially, several discrete bacterial colonies of Staphylococcus aureus, Streptococcus pneumoniae, Haemophilus influenzae, or Enterococcus faecalis (3 to 7) from a freshly streaked plate were transferred to an appropriate rich broth medium such as MHB, and supplemented where appropriate for the more fastidious organisms. This was grown overnight to high density followed by a 1 or 2-thousand-fold dilution to give an inoculation density of between 5×10^5 and 5×10^6 CFU per mL. Alternatively, the freshly picked colonies can be incubated at 37° C. for about 4 to 8 hours until the culture equals or exceeds a turbidity of a 0.5 McFarland standard (approximately 1.5×10^8 cells per mL) and diluted to give the same CFU per mL as above. In a more convenient method, the inoculum was prepared using a commercially available mechanical device (the BBL PROMPT System) that involves touching five colonies directly with a wand, containing crosshatch grooves at its bottom, followed by suspension of the bacteria in an appropriate volume of saline. Dilution to the appropriate inoculum cell density was made from this cell suspension. The broth used for testing consists of MHB supplemented with 50 mg per L of Ca^2+ and 25 mg per L of Mg^2+. Standard dilution panels of control antibiotics were made and stored as in the NCCLS standard M7-A5, the dilution range typically being in the 128 μg per mL to […] (by 2-fold serial dilution). The test compounds were dissolved and diluted fresh for experimentation on the same day; the same or similar ranges of concentration as above being used. The test compounds and controls were dispensed into a multiwell plate and test bacteria added such that the final inoculation was approximately 5×10^4 CFU per well and the final volume was 100 μL. The plates were incubated at 35° C. overnight (16 to 20 hours) and checked by eye for turbidity or quantitated with a multiwell plate reader. […] Such determinations were also compared to the appropriate tables contained in the above two publications to ensure that the range of antibacterial activity is within the acceptable range for this standardized assay.
(§2) The compound numbers correspond to the compound numbers in Table 2.

[2] = test system: Haemophilus influenzae; assay: Susceptibility testing in liquid media (MIC), H. influenzae; type: cell-based; settings: 35° C. overnight, read-out: H. influenzae MIC range
Method: as §1, §2

[3] = molecular target: E. coli Gyrase (Escherichia coli, UniProt P0AES6); assay: DNA Gyrase ATPase assay (E. coli Gyrase Ki); type: biochemical
Method: The ATP hydrolysis activity of DNA gyrase was measured by coupling the production of ADP through pyruvate kinase/lactate dehydrogenase to the oxidation of NADH. This method has been described previously (Tamura and Gellert, 1990, J. Biol. Chem., 265, 21342).
ATPase assays were carried out at 30° C. in buffered solutions containing 100 mM TRIS pH 7.6, 1.5 mM MgCl2, 150 mM KCl. The coupling system contains (final concentrations) 2.5 mM phosphoenol pyruvate, 200 μM nicotinamide adenine dinucleotide (NADH), 1 mM DTT, 30 ug/ml pyruvate kinase, and 10 ug/ml lactate dehydrogenase. 40 nanomolar enzyme and a DMSO solution of the inhibitor to a final concentration of 4% was added and the reaction mixture was allowed to incubate for 10 minutes at 30° C. The reaction was then started by the addition of ATP to a final concentration of 0.9 mM and the rate of NADH disappearance at 340 nanometers was measured over the course of 10 minutes. The Ki values were determined from rate versus concentration profiles.
The compound numbers correspond to the compound numbers in Table 2. Compounds having an activity designated as “A” provided a Ki inhibition value equal to or above 0.100 micromolar. Compounds having an activity designated as “B” provided a Ki inhibition value between 0.050 micromolar and 0.100 micromolar. […] The term “ND” means no data.

[4] = test system: Enterococcus faecalis; assay: Susceptibility testing in liquid media (MIC), E. faecalis; type: cell-based; settings: 35° C. overnight, read-out: E. faecalis MIC range
Method: as §1, §2

[5] = test system: Staphylococcus aureus; assay: Susceptibility testing in liquid media (MIC), S. aureus; type: cell-based; settings: 35° C. overnight, read-out: S. aureus MIC range
Method: as §1, §2

[6] = molecular target: S. aureus TopoIV (Staphylococcus aureus, UniProt P0C1S7); assay: DNA Topo IV ATPase assay (S. aureus TopoIV Ki); type: biochemical; settings: 30° C., read-out: S. aureus Topo IV Ki Inhibition Ranges (Activity)
Method: DNA Topo IV ATPase Assay:
The conversion of ATP to ADP by TopoIV enzyme was coupled to the conversion of NADH to NAD+ and measured by the change in absorbance at 340 nm. Topo4 was incubated with inhibitor (4% DMSO final) in buffer for 10 minutes at 30° C. Reaction was initiated with ATP and rates were monitored continuously for 20 minutes at 30° C. on a Molecular Devices SpectraMAX plate reader. The inhibition constant, Ki, was determined from plots of rate vs. [Inhibitor] fit to the Morrison Equation for tight binding inhibitors.
S. aureus TopoIV Buffer: 100 mM Tris 7.5, 2 mM MgCl2, 200 mM K●Glutamate, 2.5 mM phosphoenol pyruvate, 0.2 mM NADH, 1 mM DTT, 4.25 μg/mL linearized DNA, 50 μg/mL BSA, 30 μg/mL pyruvate kinase, and 10 μg/mL lactate dehyrodgenase (LDH).
The compound numbers correspond to the compound numbers in Table 2. Compounds having an activity designated as “A” provided a Ki inhibition value equal to or above 0.500 micromolar. […] The term “ND” means no data.

[7] = ATPase assay, 30° C., 0.9 mM ATP, read-out: E. coli Gyrase Ki Inhibition Ranges (Activity)

S. aureus TopoIV, sequence (P0C1S7 whole entry): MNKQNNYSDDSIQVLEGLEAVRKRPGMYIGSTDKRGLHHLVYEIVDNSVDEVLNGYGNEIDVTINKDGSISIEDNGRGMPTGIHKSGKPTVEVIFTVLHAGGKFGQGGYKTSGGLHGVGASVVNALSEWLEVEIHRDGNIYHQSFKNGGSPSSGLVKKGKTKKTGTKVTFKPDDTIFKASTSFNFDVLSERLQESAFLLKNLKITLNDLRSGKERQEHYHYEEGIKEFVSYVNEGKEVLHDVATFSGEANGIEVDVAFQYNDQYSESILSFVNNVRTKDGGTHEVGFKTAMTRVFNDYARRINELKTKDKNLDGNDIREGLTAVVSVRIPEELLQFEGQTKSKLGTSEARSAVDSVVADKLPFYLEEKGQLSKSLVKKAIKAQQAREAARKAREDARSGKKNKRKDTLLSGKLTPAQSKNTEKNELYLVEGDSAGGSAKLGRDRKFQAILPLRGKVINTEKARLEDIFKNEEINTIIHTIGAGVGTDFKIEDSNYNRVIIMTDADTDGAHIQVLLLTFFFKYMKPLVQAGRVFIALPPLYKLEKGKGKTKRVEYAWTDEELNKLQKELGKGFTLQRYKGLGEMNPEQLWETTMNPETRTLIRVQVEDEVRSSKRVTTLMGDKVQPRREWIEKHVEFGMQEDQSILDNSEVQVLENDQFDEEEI
S. aureus TopoIV, sequence (P0C1U9 whole entry partner): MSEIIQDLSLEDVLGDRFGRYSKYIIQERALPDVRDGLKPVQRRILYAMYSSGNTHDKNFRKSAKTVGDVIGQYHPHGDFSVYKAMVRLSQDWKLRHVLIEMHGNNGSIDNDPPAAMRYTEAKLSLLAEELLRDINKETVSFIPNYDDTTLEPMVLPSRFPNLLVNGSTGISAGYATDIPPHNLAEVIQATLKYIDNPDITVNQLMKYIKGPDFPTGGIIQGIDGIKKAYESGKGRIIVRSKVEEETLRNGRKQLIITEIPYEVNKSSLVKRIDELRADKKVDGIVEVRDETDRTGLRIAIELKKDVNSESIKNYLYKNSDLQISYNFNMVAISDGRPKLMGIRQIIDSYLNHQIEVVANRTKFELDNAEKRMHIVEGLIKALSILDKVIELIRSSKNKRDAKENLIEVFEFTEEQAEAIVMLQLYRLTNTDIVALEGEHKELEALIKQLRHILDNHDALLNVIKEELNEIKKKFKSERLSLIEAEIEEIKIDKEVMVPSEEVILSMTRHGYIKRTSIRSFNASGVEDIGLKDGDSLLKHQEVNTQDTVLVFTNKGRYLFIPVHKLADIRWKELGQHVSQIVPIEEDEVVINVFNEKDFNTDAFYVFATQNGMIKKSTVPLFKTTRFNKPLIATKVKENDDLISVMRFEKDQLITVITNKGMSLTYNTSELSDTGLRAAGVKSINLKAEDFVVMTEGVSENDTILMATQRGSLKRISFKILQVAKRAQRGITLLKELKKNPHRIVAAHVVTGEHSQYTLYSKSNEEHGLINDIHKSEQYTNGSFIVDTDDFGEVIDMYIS

SMILES | MIC [1] [µg/mL] | MIC [2] [µg/mL] | pKi [3, 7] | MIC [4] [µg/mL] | MIC [5] [µg/mL] | pKi [3] | pKi [6]
CCNC(=O)Nc1nc2cc(N3CCN(C(C)=O)CC3)cc(-c3ncccn3)c2[nH]1 [Compound I-5] | < 1 | > 7 | > 7.30 | 1 to 7 (≈ 2.45 to 17.1 µM) | > 7 |  | 
CCNC(=O)Nc1nc2cc(/C(C)=C/C(=O)NC)cc(-c3ncccc3F)c2[nH]1 [Compound I-10] | < 1 | > 7 |  | < 1 | > 7 | > 7.30 | ≥ 6.60
CCNC(=O)Nc1nc2cc(C#N)c(F)c(-n3cccn3)c2[nH]1 [Compound I-16] | 1 to 7 (≈ 3.19 to 22.3 µM) | > 7 |  | > 7 | > 7 | > 7.30 | ≤ 6.30
CCNC(=O)Nc1nc2cc(C#N)cc(-c3ncccc3F)c2[nH]1 [Compound I-4] | < 1 | > 7 | 7.00 to 7.30 | 1 to 7 (≈ 3.08 to 21.6 µM) | > 7 |  | 
CCNC(=O)Nc1nc2cc(C(C)CC(=O)N(C)C)cc(-c3ncccc3F)c2[nH]1 (centres unmarked) [Compound I-19] | 1 to 7 (≈ 2.42 to 17 µM) | > 7 |  | 1 to 7 (≈ 2.42 to 17 µM) | > 7 | < 7.00 | ≤ 6.30
CCNC(=O)Nc1nc2cc(C3CCN(C)C(=O)C3)cc(-c3ncccc3F)c2[nH]1 (centres unmarked) [Compound I-13] | < 1 | > 7 |  | < 1 | 1 to 7 (≈ 2.44 to 17.1 µM) | > 7.30 | ≥ 6.60
CCNC(=O)Nc1nc2cc(C3=CC(=O)N(Cc4ccccc4)CC3)cc(-n3cccn3)c2[nH]1 [Compound I-18] | < 1 | > 7 |  | < 1 | < 1 | > 7.30 | ≥ 6.60
CCNC(=O)Nc1nc2cc(F)cc(-c3ncccn3)c2[nH]1 [Compound I-15] | 1 to 7 (≈ 3.33 to 23.3 µM) | > 7 |  | 1 to 7 (≈ 3.33 to 23.3 µM) | > 7 | > 7.30 | ≤ 6.30
CCNC(=O)Nc1nc2cc(/C(C)=C/C(=O)N(C)C)cc(-c3ncccc3F)c2[nH]1 [Compound I-8] | < 1 | > 7 |  | 1 to 7 (≈ 2.44 to 17.1 µM) | > 7 | 7.00 to 7.30 | ≥ 6.60
CCNC(=O)Nc1nc2cc(C(=O)NC)cc(-c3ncccc3F)c2[nH]1 [Compound I-3] | < 1 | > 7 | > 7.30 | < 1 | > 7 |  | 
CCNC(=O)Nc1nc2cc(NCc3ccccn3)cc(-c3ncccn3)c2[nH]1 [Compound I-14] | < 1 | > 7 |  | 1 to 7 (≈ 2.57 to 18 µM) | > 7 | 7.00 to 7.30 | ≤ 6.30
CCNC(=O)Nc1nc2cc(C3CCN(Cc4ccccc4)C(=O)C3)cc(-n3cccn3)c2[nH]1 (centres unmarked) [Compound I-17] | < 1 | > 7 |  | 1 to 7 (≈ 2.19 to 15.3 µM) | 1 to 7 (≈ 2.19 to 15.3 µM) | < 7.00 | ≥ 6.60
CCNC(=O)Nc1nc2cc(C(=O)OC)cc(-c3ncccc3F)c2[nH]1 [Compound I-7] | 1 to 7 (≈ 2.8 to 19.6 µM) | > 7 | > 7.30 | 1 to 7 (≈ 2.8 to 19.6 µM) | > 7 |  | 
CCNC(=O)Nc1nc2cc(C(=O)O)cc(-c3ncccc3F)c2[nH]1 [Compound I-2] | > 7 | > 7 | < 7.00 | > 7 | > 7 |  | 
CCNC(=O)Nc1nc2cc(N3CCCC3=O)cc(-c3ncccn3)c2[nH]1 [Compound I-6] | < 1 | > 7 | > 7.30 | 1 to 7 (≈ 2.74 to 19.2 µM) | > 7 |  | 
CCNC(=O)Nc1nc2cc(OC)cc(-n3cccn3)c2[nH]1 [Compound I-1] | 1 to 7 (≈ 3.33 to 23.3 µM) | > 7 | 7.00 to 7.30 | > 7 | > 7 |  | 
CCNC(=O)Nc1nc2cc(C(C)CC(=O)NC)cc(-c3ncccc3F)c2[nH]1 (centres unmarked) [Compound I-9] | 1 to 7 (≈ 2.51 to 17.6 µM) | > 7 |  | > 7 | > 7 | < 7.00 | ≤ 6.30
